Several values for one entry are separate records, joined by “and”; a condition that tells them apart may be missing. Equal entries are not always repeated. Entries after “also recorded” stand apart in the source; their conditions may differ.
How the values were obtained:
[1] = Open-label Phase 1b study in pediatric patients (Example 7), plasma concentrations of RVT-501 and M11; assay type: in vivo, human; settings: for subjects with measurable concentrations in plasma at one or more time points: PK Set n=25, LLOQ 0.25 ng/mL
Description: During the Treatment Phase, subjects, their parent(s), or caregiver applied RVT-501 0.5% ointment to affected areas twice daily for 28 days. Subjects returned to the clinic at Week 1, Week 4, and follow-up for study assessments. On Day 1 and Weeks 2 and 3, subjects were contacted by phone to confirm their status, including any adverse events (AEs) and changes in concomitant medications.
Primary Endpoints: Frequency and severity of AE (local and systemic), Laboratory values, Vital signs, Plasma concentrations of RVT-501 and M11 metabolite.
Analysis Populations: All subjects enrolled in the study who had at least one application of study drug were included in the Safety Set. This was the population for the safety and efficacy analyses. The PK Set included all subjects who underwent plasma PK sampling and had evaluable PK assay results.
Pharmacokinetic Analyses: RVT-501 and M11 were measured in plasma by a validated assay. The number and percent of subjects with measurable concentration at each time point and at any time during the study were summarized. RVT-501 and M11 concentrations were summarized descriptively at each collection time point.

[2] = Phase 2 study in pediatric patients (Example 6), plasma concentrations of RVT-501 and M11 at Week 1; assay type: in vivo, human; settings: for Plasma concentration, Mean (SD) / Plasma concentration, Median / Plasma concentration, Min / Plasma concentration, max / N with concentrations above LLQ (plasma): Week 1 pre-dose, subjects aged 2 to 11 years, twice daily application of RVT-501 0.5%; for N with concentrations above LLQ (plasma): N 16, LLQ 0.25 ng/mL
Method: Pharmacokinetic Endpoint: PK analysis for RVT-501 and M11 metabolite at the Week 1 visit in subjects 2 to 11 years old.
Pharmacokinetic Analyses: RVT-501 and M11 were measured in plasma by a validated assay. Plasma concentrations were summarized as continuous variables.
Pharmacokinetic Concentration Results: A single blood sample was collected pre-dose in subjects aged 2 to 11 years old at Week 1 to assess the concentration of RVT-501 and the M11 metabolite in plasma.

[3] = Clinical application of DBS assay: blood levels in pediatric trial of E6005 ointment; assay type: in vivo, human; settings: pediatric subjects; E6005 ointment 0.05% or 0.2% twice a day for two weeks; 147 DBS samples
Method: Clinical application: A clinical study was performed in which E6005 ointment containing 0.05% or 0.2% was topically applied twice a day for two weeks to pediatric subjects. Blood samples were obtained at 1- and 2-week post-dose as well as subsequent 7-day follow-up period in collection tubes with K2-EDTA as an anticoagulant, thereafter put on ice as soon as possible to reduce possible conversion of E6005 to M11. Details on sample handling at the clinics were clarified in a lab manual; a 25 μL aliquot blood sample was spotted onto the center of circle of DBS cards (four replicates per sample) at clinics, then dried at room temperature for at least 2 h. DBS cards with desiccants were placed in zip lock bags and stored frozen below −20° C. until shipment to a bioanalytical laboratory. Samples were stored below −15° C. at the laboratory until they were subjected to sample processing for the determination of E6005 and M11 concentrations in DBS.

[4] = Blood-to-plasma partition (B/P); assay type: in vitro ADME, human; settings: for average B/P of two levels: 3 and 160 ng/mL; for blood plasma ratio at 3 ng/mL / blood plasma ratio at 160 ng/mL: human, whole blood and plasma prepared from it
Method: Blood-to-plasma partition and shelf-life of refrigerated blood: The blood-to-plasma partition (B/P) of E6005 and M11 was determined by assaying concentrations of E6005 and M11 in whole blood samples and plasma samples prepared from blood samples by centrifugation. […] The average B/P of two levels was 0.679 for E6005 and 0.584 for M11.

[5] = Week 1 Hour 3, RVT-501 0.5% (N = 25)
[6] = Week 1 Hour 7, RVT-501 0.5% (N = 25)
[7] = Week 1 Pre-Dose, RVT-501 0.5% (N = 25)
[8] = Week 4 Pre-Dose, RVT-501 0.5%, N 23
[9] = Week 1, RVT-501 0.5% twice daily, person two

## CNc1nc(-c2cccc(NC(=O)c3ccc(C(=O)O)cc3)c2)c2cc(OC)c(OC)cc2n1 [Formulation M11, 4-((3-(6,7-dimethoxy-2-(methylamino)quinazolin-4-yl)phenyl)carbamoyl)benzoic acid]
[1]
  subjects with measurable concentrations in plasma at one or more time points: 40%
[1]; Week 1, 7 hours post-dose
  highest plasma concentration of M11 (Subject 03007): 23.4 ng/mL and 23.40 ng/mL
  mean plasma concentration of the M11 metabolite: 1.24 ng/mL
[1]; [5]
  Number of subjects with measurable concentrations, (%): (28.0) %
  Plasma concentration, Max: 8.58 ng/mL
  Plasma concentration, Mean: 0.61 ng/mL
  Plasma concentration, Median: 0.0 ng/mL
  Plasma concentration, Min: 0 ng/mL
[1]; [6]
  Number of subjects with measurable concentrations, (%): (28.0) %
  Plasma concentration, Max: 23.40 ng/mL
  Plasma concentration, Mean: 1.24 ng/mL
  Plasma concentration, Median: 0.0 ng/mL
  Plasma concentration, Min: 0 ng/mL
[1]; [7]
  Number of subjects with measurable concentrations, (%): (24.0) %
  Plasma concentration, Max: 7.64 ng/mL
  Plasma concentration, Mean: 0.57 ng/mL
  Plasma concentration, Median: 0.0 ng/mL
  Plasma concentration, Min: 0 ng/mL
[1]; [8]
  Number of subjects with measurable concentrations, (%): (17.4) %
  Plasma concentration, Max: 1.07 ng/mL
  Plasma concentration, Mean: 0.12 ng/mL
  Plasma concentration, Median: 0.0 ng/mL
  Plasma concentration, Min: 0 ng/mL
[1]; all time points except 7 hours post-dose at Week 1
  mean plasma concentration of the M11 metabolite: below 1 ng/ml
[2]; Week 1, RVT-501 0.5% twice daily
  highest plasma M11 concentration (Subject 05002): 16.90 ng/mL
[2]; Week 1, ages 2-11 years
  measurable plasma concentrations of the M11 metabolite (eight subjects out of 16): near the lower limit of quantitation
[2]
  Plasma concentration, Mean (SD): 1.50 (4.194) ng/mL
  Plasma concentration, Median: 0.19 ng/mL
  Plasma concentration, Min: 0 ng/mL
  Plasma concentration, max: 16.90 ng/mL
  N with concentrations above LLQ (plasma): 8
[3]
  maximum level in blood (DBS): below the LLOQ
[4]
  average B/P of two levels: 0.584
  blood plasma ratio at 3 ng/mL: 0.594
  blood plasma ratio at 160 ng/mL: 0.574

## CNc1nc(-c2cccc(NC(=O)c3ccc(C(=O)OC)cc3)c2)c2cc(OC)c(OC)cc2n1 [RVT-501, methyl N-[3-(6,7-dimethoxy-2-methylaminoquinazolin-4-yl)phenyl]terephthalamic acid]
[1]
  subjects with measurable concentrations in plasma at one or more time points: 40%
[1]; Week 1, 3 hours post-dose
  mean plasma concentration of RVT-501: 102.92 ng/mL
  plasma level of RVT-501, Subject 03002: 710.0 ng/mL
[1]; Week 1, 7 hours post-dose
  mean plasma concentration of RVT-501: 62.16 ng/mL
  plasma level of RVT-501, Subject 03001: 80.3 ng/mL
[1]; [5]
  Number of subjects with measurable concentrations, (%): (24.0) %
  Plasma concentration, Max: 1860.00 ng/mL
  Plasma concentration, Mean: 102.92 ng/mL
  Plasma concentration, Median: 0.0 ng/mL
  Plasma concentration, Min: 0 ng/mL
[1]; [6]
  Number of subjects with measurable concentrations, (%): (32.0) %
  Plasma concentration, Max: 1470.00 ng/mL
  Plasma concentration, Mean: 62.16 ng/mL
  Plasma concentration, Median: 0.0 ng/mL
  Plasma concentration, Min: 0 ng/mL
[1]; [7]
  Number of subjects with measurable concentrations, (%): (24.0) %
  Plasma concentration, Max: 147.00 ng/mL
  Plasma concentration, Mean: 6.00 ng/mL
  Plasma concentration, Median: 0.0 ng/mL
  Plasma concentration, Min: 0 ng/mL
[1]; Week 1 pre-dose
  mean plasma concentration of RVT-501: 6.00 ng/mL
  plasma level of RVT-501, Subject 03007: 147.0 ng/mL
[1]; Week 1 visit
  subjects with concentrations of RVT-501 ≥80 ng/ml: 16%
[1]; [8]
  Number of subjects with measurable concentrations, (%): (13.0) %
  Plasma concentration, Max: 0.45 ng/mL
  Plasma concentration, Mean: 0.05 ng/mL
  Plasma concentration, Median: 0.0 ng/mL
  Plasma concentration, Min: 0 ng/mL
[1]; human, in vivo
  highest plasma concentration of RVT-501: 1 860 ng/mL
[2]; Week 1, RVT-501 0.5% twice daily, person one
  plasma RVT-501 concentration, Subject 03001: 1.07 ng/mL
[2]; [9]
  plasma RVT-501 concentration, Subject 05002: 306 ng/mL and 306.00 ng/mL
  plasma RVT-501 concentration, Subject 21001: above the upper limit of quantification; also recorded: above upper limit of quantitation
[2]
  Plasma concentration, Mean (SD): 31.69 (88.531) ng/mL
  Plasma concentration, Median: 0 ng/mL
  Plasma concentration, Min: 0 ng/mL
  Plasma concentration, max: 306.00 ng/mL
  N with concentrations above LLQ (plasma): 3
[3]
  maximum level in blood (DBS): 1.65 ng/mL
[4]
  average B/P of two levels: 0.679
  blood plasma ratio at 3 ng/mL: 0.69
  blood plasma ratio at 160 ng/mL: 0.669

— patent publication US20210093637A1, “TOPICAL OINTMENT FORMULATIONS OF PDE-4 INHIBITOR AND THEIR USE IN TREATING SKIN CONDITIONS” (Dermavant Sciences GmbH, priority 2017, published 2021)
